{
  "source": "patent US8598314B2",
  "about": "(priority 2007, dated 2013)",
  "key": {"NIH/Swiss mice": {"test_system": "NIH/Swiss mice", "test": "Oral glucose tolerance test (OGTT), glucose lowering", "assay_type": "in vivo", "conditions": "IP injection, 2 hour fasted NIH/Swiss mice, FIGS. 5 and 6", "protocol": ". Test compounds were injected IP (t=0 min) immediately following baseline measurements of 2 hour fasted NIH/Swiss mice. Blood samples were taken at 60, 120, and 180 minutes after injection. In some assays, samples were also taken at 240 minutes after the injection. Blood glucose was measured with a One-Touch® Ultra® glucose meter (LifeScan, Inc., Milpitas, Calif.). […].\nThe tests were performed as described in Example 5."}, "in vitro": {"test": "in vitro", "conditions": "human, kidney or brush border membranes, pH 7.4", "method": "The tubes were incubated in VorTemp 56™ (Eurotech Labs, UK) at 37° C. vortexed at 500 RPM. At time points of 0, 1, 2, 3, 4, and 5 hours, 200 μl STOP solution (50% ACN, 1% formic acid) was added to a given tube, and the samples were allowed to incubate until the end of the experiment. The samples were collected after 5 hours, centrifuged, and 200 μl of the supernatants were transferred into mass spectrometry vials. The intensities of the mother ions in each vial were analyzed with API 150EX™ mass spectrometer (Applied Biosystems, Foster City, Calif.) and quantified using the ANALYST™ program.\nThe hKBBM assay was also performed in the presence of valinepyrrolidide, a DPP-IV inhibitor."}, "ACE from rabbit lung": {"target": "T1, ACE from rabbit lung (Oryctolagus cuniculus, UniProt P12822)", "T1 construct": "ACE from rabbit lung; purchased Sigma Chemical Co; host or cells: rabbit lung tissue", "T1 sequence (P12822 34-1310)": "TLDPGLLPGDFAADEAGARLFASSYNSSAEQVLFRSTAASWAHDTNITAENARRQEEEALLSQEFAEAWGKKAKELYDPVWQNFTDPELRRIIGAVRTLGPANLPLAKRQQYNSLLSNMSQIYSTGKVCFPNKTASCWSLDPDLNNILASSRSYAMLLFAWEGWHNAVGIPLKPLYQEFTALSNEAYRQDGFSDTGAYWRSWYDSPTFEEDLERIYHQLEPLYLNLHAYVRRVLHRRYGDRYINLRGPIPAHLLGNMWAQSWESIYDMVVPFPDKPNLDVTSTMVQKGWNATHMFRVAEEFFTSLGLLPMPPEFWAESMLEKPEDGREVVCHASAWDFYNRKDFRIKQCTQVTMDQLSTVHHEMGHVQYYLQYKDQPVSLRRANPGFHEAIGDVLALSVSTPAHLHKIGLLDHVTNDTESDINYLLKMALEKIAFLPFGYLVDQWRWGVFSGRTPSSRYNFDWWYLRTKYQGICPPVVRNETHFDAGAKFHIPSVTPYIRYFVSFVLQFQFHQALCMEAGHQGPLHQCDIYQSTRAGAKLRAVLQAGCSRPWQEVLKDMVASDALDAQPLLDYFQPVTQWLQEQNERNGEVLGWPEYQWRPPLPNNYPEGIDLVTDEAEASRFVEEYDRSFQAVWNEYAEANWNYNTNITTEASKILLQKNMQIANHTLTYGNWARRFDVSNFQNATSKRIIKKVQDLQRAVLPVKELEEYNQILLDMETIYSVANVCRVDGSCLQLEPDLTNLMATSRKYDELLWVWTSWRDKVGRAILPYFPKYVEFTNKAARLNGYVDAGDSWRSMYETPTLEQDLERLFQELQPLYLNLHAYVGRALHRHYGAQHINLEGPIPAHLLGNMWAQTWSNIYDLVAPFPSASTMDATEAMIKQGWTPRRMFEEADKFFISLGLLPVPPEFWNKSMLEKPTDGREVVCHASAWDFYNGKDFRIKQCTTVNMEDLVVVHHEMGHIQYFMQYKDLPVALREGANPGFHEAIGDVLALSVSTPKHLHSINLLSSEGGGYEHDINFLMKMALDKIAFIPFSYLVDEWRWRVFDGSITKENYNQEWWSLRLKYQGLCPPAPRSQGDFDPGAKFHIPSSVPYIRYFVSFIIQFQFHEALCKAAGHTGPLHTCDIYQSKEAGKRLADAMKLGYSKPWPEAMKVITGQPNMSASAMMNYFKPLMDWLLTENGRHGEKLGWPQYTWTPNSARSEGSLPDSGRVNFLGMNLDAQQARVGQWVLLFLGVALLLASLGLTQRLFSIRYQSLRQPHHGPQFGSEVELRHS", "test": "ACE inhibition assay", "assay_type": "biochemical", "protocol": "Peptide-ACE peptidase inhibitor conjugate compounds were assessed in an ACE inhibition assay using purified ACE enzyme and chromogenic substrates. An ACE stock solution was prepared by dissolving 0.1 unit of enzyme (ACE from rabbit lung, Sigma Chemical Co., St. Louis, Mo.) in 0.640 mL of HEPES buffer (0.1 M, pH=8). A 2 mM stock solution of substrate (N-benzyloxycarbonyl-Phe-His-Leu-OH) dissolved in methanol. The ACE inhibitor compounds were dissolved in phosphate buffer (0.1 M, pH=8) at concentrations of 0.0, 1, 10, 20, 60 and 100 μM. For the inhibition assay, six 2 mL microcentrifuge tubes were prepared containing 1.45 mL of phosphate buffer pH=8, 0.05 mL of 10% NaCl and 0.015 mL of substrate solution. To each microcentrifuge tube was added 0.015 mL of one of the ACE inhibitor compound's stock solutions. The solutions were heated at 37° C. for about 5 minutes. The reaction was started by the addition of 5 μL of the ACE stock solution to each tube mixture (30 seconds in between). The reaction mixtures were incubated at 37° C. After 5 min, 10 min, 30 min and 60 min., aliquots of 100 μL were taken from each tube (each sample was taken in intervals of 30 seconds). Tubes containing the 100 μL sample were floated in a boiling water bath for 5 min. and then cooled. The reaction samples were then treated with 20 μL of 2M NaOH and 20 μL of 0.1% phthaldialdehyde solution. The tubes were shaken for 4 minutes and 10 μL of 6 M HCl were added. […] Initial rates were determined from linear portions of product release curves. Starting substrate concentration in all assays was 20 μM. Apparent binding constants (Kd^app or Ki^app) of inhibitors to ACE were determined by fitting inhibition curves (initial rate vs. inhibitor concentration) to equation:\n[formula] where v0 is reaction rate in the absence of inhibitor and [I]-inhibitor concentration. Fits were done by least-squares method using KaleidaGraph 3.6 (Synergy Software, Reading Pa.)."}, "[1]": {"test_system": "Dahl salt-sensitive (DSS) male rats", "test": "Congestive heart failure (CHF) in vivo assay", "conditions": "10 μg/kg/day subcutaneous infusion, high-salt diet", "method": "In this assay, Dahl salt-sensitive (DSS) male rats were weaned at 21 days of age, maintained on a low-salt (LS) diet (0.2% NaCl) for 2 weeks. Rats were anesthetized with ketamine/xylazine (50 mg/kg/10 mg/kg, IP) and telemetry transmitters (Data Sciences, Inc.) were inserted to the aortic artery when rats were at 5 weeks of age. After surgery, the rats were allowed 10 days to recuperate before their BP (systolic and diastolic pressures) was recorded.\nHS control animals (n=10 rats) were administered vehicle (50% DMSO) and fed HS in the same manner. LS control animals (n=5 rats) were maintained on the LS diet."}, "[2]": {"target": "T2, endogenously expressed GLP-1 receptor, thyroid c-cell carcinoma line 6-23 (Rattus norvegicus, UniProt P32301)", "T2 construct": "the endogenously expressed GLP-1 receptor; endogenous in cells; host or cells: thyroid c-cell carcinoma line 6-23", "T2 sequence (P32301 22-463)": "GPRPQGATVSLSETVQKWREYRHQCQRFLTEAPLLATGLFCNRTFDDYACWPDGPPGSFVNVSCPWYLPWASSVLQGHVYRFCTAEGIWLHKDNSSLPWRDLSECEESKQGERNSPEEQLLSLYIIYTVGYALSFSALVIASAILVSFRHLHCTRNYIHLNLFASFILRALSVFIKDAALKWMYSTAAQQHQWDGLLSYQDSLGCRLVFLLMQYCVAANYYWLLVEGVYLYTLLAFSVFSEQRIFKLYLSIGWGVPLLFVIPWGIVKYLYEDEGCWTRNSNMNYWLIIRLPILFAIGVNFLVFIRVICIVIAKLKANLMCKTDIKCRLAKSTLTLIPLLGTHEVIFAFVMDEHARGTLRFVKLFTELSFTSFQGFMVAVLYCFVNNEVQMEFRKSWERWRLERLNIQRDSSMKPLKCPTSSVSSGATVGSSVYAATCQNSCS", "test": "GLP-1 cyclase whole cell cAMP assay", "assay_type": "cell-based", "protocol": "Cells from the thyroid c-cell carcinoma line 6-23 were grown to confluence and harvested by treatment with Versene ([…]). […] Accumulation of cAMP was measured following 30′ conjugate or control agent treatment using an HTRF® cell-based cAMP assay kit (Cisbio-US, Inc., Bedford, Mass.) in 384-well format. The compounds were tested at final concentrations from 1 μM to 10 pM. The cell-conjugate mixture was incubated for 30′ at room temperature, at which time the reaction was terminated by the addition of kit-provided α-cAMP Cryptate solution. Plates were then sealed and stored at room temperature overnight to allow components to come to full equilibrium. cAMP content was then measured by time resolved fluorescence."}, "recombinant DPP-IV": {"test_system": "recombinant DPP-IV", "test": "recombinant DPP-IV in assay buffer (25 mM Tris-HCl, 140 mM NaCl, 10 mM KCl, pH 7.4)", "conditions": "room temperature, up to 15 hours"}},
  "data": [
    {"compound": "CC[C@H](C)[C@H](NC(=O)[C@H](Cc1ccccc1)NC(=O)[C@H](CCC(=O)O)NC(=O)[C@H](CCCCN)NC(=O)[C@H](C)NC(=O)[C@H](C)NC(=O)[C@H](CCC(N)=O)NC(=O)CNC(=O)[C@H](CCC(=O)O)NC(=O)[C@H](CC(C)C)NC(=O)[C@H](Cc1ccc(O)cc1)NC(=O)[C@H](CO)NC(=O)[C@H](CO)NC(=O)[C@@H](NC(=O)[C@H](CC(=O)O)NC(=O)[C@H](CO)NC(=O)[C@@H](NC(=O)[C@H](Cc1ccccc1)NC(=O)[C@@H](NC(=O)CNC(=O)[C@H](CCC(=O)O)NC(=O)[C@H](C)NC(=O)[C@H](Cc1c[nH]cn1)NC(=O)COCCOCCNC(=O)[C@@H]1CCCN1C(=O)[C@H](C)NC(CCc1ccccc1)C(=O)O)[C@@H](C)O)[C@@H](C)O)C(C)C)C(=O)N[C@@H](C)C(=O)N[C@@H](Cc1c[nH]c2ccccc12)C(=O)N[C@@H](CC(C)C)C(=O)N[C@H](C(=O)N[C@@H](CCCCN)C(=O)NCC(=O)N[C@@H](CCCNC(=N)N)C(N)=O)C(C)C", "note": "(stereo partly drawn) [Compound 4983, (R,S)-1-[N^2-(1-carboxy-3-phenylpropyl)-L-ala]-L-pro-8-amino-3,6-dioxaoctanoyl-GLP-1-(7-36) amide]", "values": [
      {"measurement": "glucose lowering in OGTT (in words)", "setting": "NIH/Swiss mice", "result": "enhance glucose-lowering action compared to GLP-1"},
      {"measurement": "remaining at 4 h", "setting": "in vitro", "result": "> 80", "unit": "%"}
    ]},
    {"compound": "CC[C@H](C)[C@H](NC(=O)[C@H](Cc1ccccc1)NC(=O)[C@H](CC(C)C)NC(=O)[C@H](CCCNC(=N)N)NC(=O)[C@@H](NC(=O)[C@H](C)NC(=O)[C@H](CCC(=O)O)NC(=O)[C@H](CCC(=O)O)NC(=O)[C@H](CCC(=O)O)NC(=O)[C@H](CC(C)C)NC(=O)[C@H](CCC(N)=O)NC(=O)[C@H](CCCCN)NC(=O)[C@H](CO)NC(=O)[C@H](CC(C)C)NC(=O)[C@H](CC(=O)O)NC(=O)[C@H](CO)NC(=O)[C@@H](NC(=O)[C@H](Cc1ccccc1)NC(=O)[C@@H](NC(=O)CNC(=O)[C@H](CCC(=O)O)NC(=O)CNC(=O)[C@@H](N)Cc1c[nH]cn1)[C@@H](C)O)[C@@H](C)O)C(C)C)C(=O)N[C@@H](CCC(=O)O)C(=O)N[C@@H](Cc1c[nH]c2ccccc12)C(=O)N[C@@H](CC(C)C)C(=O)N[C@@H](CCCCN)C(=O)N[C@@H](CCC(N)=O)C(=O)NCC(=O)NCC(=O)N1CCC[C@H]1C(=O)N[C@@H](CO)C(=O)N[C@@H](CCCCN)C(=O)N[C@@H](CCC(=O)O)C(=O)N[C@H](C(=O)N[C@H](C(=O)N[C@@H](CO)C(=O)NCCOCCOCCOCC(=O)NCCOCCOCC(=O)NCCCC[C@H](NC(CCc1ccccc1)C(=O)O)C(=O)N1CCC[C@H]1C(=O)O)[C@@H](C)CC)[C@@H](C)CC", "note": "(stereo partly shown) [Compound 5715]", "values": [
      {"measurement": "IC50", "setting": "ACE from rabbit lung", "result": 260, "unit": "nM"},
      {"measurement": "mean diastolic blood pressure at week 5", "setting": "[1]", "result": 112, "unit": "mmHg"},
      {"measurement": "mean heart rate at week 5", "setting": "[1]", "result": 381},
      {"measurement": "mean systolic blood pressure at week 5", "setting": "[1]", "result": 161, "unit": "mmHg"}
    ]},
    {"compound": "CC[C@H](C)[C@H](NC(=O)[C@H](Cc1ccccc1)NC(=O)[C@H](CC(C)C)NC(=O)[C@H](CCCNC(=N)N)NC(=O)[C@@H](NC(=O)[C@H](C)NC(=O)[C@H](CCC(=O)O)NC(=O)[C@H](CCC(=O)O)NC(=O)[C@H](CCC(=O)O)NC(=O)[C@H](CC(C)C)NC(=O)[C@H](CCC(N)=O)NC(=O)[C@H](CCCCN)NC(=O)[C@H](CO)NC(=O)[C@H](CC(C)C)NC(=O)[C@H](CC(=O)O)NC(=O)[C@H](CO)NC(=O)[C@@H](NC(=O)[C@H](Cc1ccccc1)NC(=O)[C@@H](NC(=O)CNC(=O)[C@H](CCC(=O)O)NC(=O)CNC(=O)[C@@H](N)Cc1c[nH]cn1)[C@@H](C)O)[C@@H](C)O)C(C)C)C(=O)N[C@@H](CCC(=O)O)C(=O)N[C@@H](Cc1c[nH]c2ccccc12)C(=O)N[C@@H](CC(C)C)C(=O)N[C@@H](CCCCN)C(=O)N[C@@H](CCC(N)=O)C(=O)NCC(=O)NCC(=O)N1CCC[C@H]1C(=O)N[C@@H](CO)C(=O)N[C@@H](CCCCN)C(=O)N[C@@H](CCC(=O)O)C(=O)N[C@H](C(=O)N[C@H](C(=O)N[C@@H](CO)C(=O)NCCCC(=O)NCCC(=O)NCCCC[C@H](NC(CCc1ccccc1)C(=O)O)C(=O)N1CCC[C@H]1C(=O)O)[C@@H](C)CC)[C@@H](C)CC", "note": "(stereo partly shown) [Compound 5716]", "values": [
      {"measurement": "IC50", "setting": "ACE from rabbit lung", "result": 140, "unit": "nM"},
      {"measurement": "EC50", "setting": "[2]", "result": 0.14, "unit": "nM"}
    ]},
    {"compound": "GLP-1(7-37)-GG-(S)-2,6-diamino-1-(thiazolidin-2-cyano-3-yl)hexan-1-one amide", "values": [
      {"measurement": "not cleaved", "setting": "recombinant DPP-IV", "result": "expected product ions were not observed; DPP-IV resistant under the test conditions"}
    ]},
    {"compound": "GLP-1(7-37)-GG-(S)-2,6-diamino-1-(thiazolidin-3-yl)hexan-1-one amide", "values": [
      {"measurement": "not cleaved", "setting": "recombinant DPP-IV", "result": "expected product ions were not observed; DPP-IV resistant under the test conditions"}
    ]}
  ]
}
